{
  "source": "ChEMBL document CHEMBL4619773",
  "about": "“Chemoreactive-Inspired Discovery of Influenza A Virus Dual Inhibitor to Block Hemagglutinin-Mediated Adsorption and Membrane Fusion” (J Med Chem, 2020)",
  "tested_on": "Influenza A virus",
  "format": "functional, organism-based",
  "data": [
    {"compound": "CC(=O)c1cc(C)c(O)c(Cc2[nH]c3ccccc3c2Cc2c(O)c(C)cc(C(C)=O)c2O)c1O", "values": [
      {"measurement": "IC50", "value": "> 42", "unit": "µg/mL"}
    ]}
  ]
}
